Test [1] relates to Trialeurodes vaporariorum. The test is described as follows: whole plant or invertebrate. The test is classed as in vivo, Trialeurodes vaporariorum (greenhouse whitefly). As to conditions: 144 h, initial test concentration of 0.1% w (1000 ppm), 6 days, read-out: mortality grade T.v. The protocol: (§1) Insecticidal activity of compounds of general formula I was assessed against the following pests: […]
Trialeurodes vaporariorum (greenhouse whitefly)
(§2) The test methods employed for each species appear below. In each test, unless otherwise stated, solutions or suspensions of test compound were made up over a range of concentrations in water (initially 0.1% w) containing 10%w acetone and 0.025% w "TRITON X-100" (trade mark) surface active agent (the condensation product of ethylene oxide with an alkyl phenol). These solutions were sprayed at a rate equivalent to 340 liters per hectare (3.4×10^-5 m^3 /m^2) onto Petri dishes containing either test species per se or diet onto which test species were subsequently introduced, as indicated. In some assays leaf discs infested with test species were sprayed whilst other assays involved the spraying of plants which were infested subsequently with test species after the spray solution had dried. The tests were all conducted under normal insectary conditions (23° C.±2° C., fluctuating humidity and light).
Mortality assessments were made as indicated below, in terms of percentage mortality figures. In each test a LC50 (the dosage of active material required to kill half of the test species) for the compound was calculated from the mortality figures and compared with the corresponding LC50 for a standard insecticide, ethyl parathion, in the same test. The results are expressed as toxicity indices thus: [formula] (i) Spodoptera littoralis (7 day)(Sl 7D) Test solutions were sprayed as indicated above onto Petri dishes containing a nutritious diet for Egyptian cotton leafworm larvae. When the spray deposit had dried, each dish was infested with ten 2nd instar larvae. Mortality assessments were made 7 days after spraying.
(iii) Trialeurodes vaporariorum (Tv)
French bean plants (Phaseolus vulgaris) with two fully expanded leaves were placed in a breeding culture of T.vaporariorum, also on French bean plants, which were then disturbed to ensure resettlement on the introduced plants. During the subsequent 24 hour period, eggs were deposited and kept at 27° C., with 14 hours photoperiod. All adult whiteflies were then carefully removed, leaving egg samples of a known age. After eight days the majority of eggs had hatched. Leaf discs containing the newly hatched nymphs were then cut from the leaves and transferred to moist filter paper. The discs were examined under a low-powered microscope to determine the exact number of 1st instar nymphs per disc and to remove any unhatched eggs. On average, 70-100 nymphs were found per disc. The discs were transferred into Petri dishes and sprayed with test solutions as described above. After 6 days percentage mortalities were assessed.

The test system of the next test is Tetranychus urticae. The test is described as follows: Acaricidal activity (mite life cycle), Tetranychus urticae. As to conditions: larvae on leaf discs sprayed at 340 liters per hectare; emergence of adults after 7 days. It counts as in vivo, Tetranychus urticae (glasshouse red spider mite). As for the experimental part:
Acaricidal activity of some compounds of formula I was assessed, employing adult female glasshouse red spider mites, Tetranychus urticae (T.u.), by the following procedure.
2 cm diameter leaf discs cut from the leaves of French bean plants were placed, underside uppermost, on 5.5 cm diameter filter papers, kept moist by a cotton wool wick dipped in water.
Each leaf disc was infested with 25 to 30 adult female mites which were removed after 6 hours, leaving bout 50 eggs on each disc. Within 5 days the eggs hatched. The freshly emerged larvae on the leaf discs were sprayed with solutions of test compound made up as in Example 156 above, at a rate equivalent to 340 liters per hectare (3.4×10^-5 m^3 /m^2).
The discs were thereafter kept under normal laboratory conditions (23° C.±2° C., fluctuating humidity and 16 hours day length). After 7 days assessment was made of the number of mites emerging as adults.

For the next test, the system named is Spodoptera littoralis. The test is described as follows: whole plant or invertebrate. The test is classed as in vivo, Spodoptera littoralis (Egyptian cotton leafworm). The following applies: 168 h, initial test concentration of 0.1% w (1000 ppm), 7 days, read-out: mortality grade S.l. The protocol:
as §1
Spodoptera littoralis (Egyptian cotton leafworm)
as §2, with “The tests were all conducted under normal insectary conditions (23° C.±2° C., fluctuating humidity and light).” left out
Mortality assessments were made as indicated below, in terms of percentage mortality figures. In each test a LC50 (the dosage of active material required to kill half of the test species) for the compound was calculated from the mortality figures and compared with the corresponding LC50 for a standard insecticide, ethyl parathion, in the same test. The results are expressed as toxicity indices thus: [formula] […]

As usually defined, the mortality is the percentage killed.

Take `O=C(NC(=O)c1c(F)cccc1F)Nc1ccc2c(c1)COC(c1ccccc1Cl)O2` (centres unmarked) [Example 80]: in test [1], the mortality at 1000 µg/mL was 40 to 69%.
On the same count and under the same terms, for `O=C(NC(=O)c1c(F)cccc1F)Nc1ccc2c(c1)COC(c1ccc(Cl)cc1)O2` (centres unmarked) [Example 81] the value was 40 to 69%.
Regarding `O=C(NC(=O)c1c(F)cccc1F)Nc1ccc2c(c1)COC(c1ccc(Cl)cc1Cl)O2` (centres unmarked) [Example 82], in the test with Tetranychus urticae, the “LC50 (% active ingredient in spray)” value is recorded as 0.00023 % active ingredient in spray.
For `O=C(NC(=O)c1c(F)cccc1F)Nc1ccc2c(c1)COC(c1ccc(Cl)c(Cl)c1)O2` (centres unmarked) [Example 83], in test [1], the mortality at 1000 µg/mL lay within 40 to 69%.
Turning to `O=C(NC(=O)c1c(F)cccc1F)Nc1ccc2c(c1)COC(c1c(Cl)cccc1Cl)O2` (centres unmarked) [Example 84], the mortality at 1000 µg/mL in test [1] lay in the range of 40 to 69%. The “LC50 (% active ingredient in spray)” value in the test on Tetranychus urticae is on record as 0.00036 % active ingredient in spray.
As for `O=C(NC(=O)c1c(F)cccc1F)Nc1ccc2c(c1)COC(c1ccc(C(F)(F)F)cc1Cl)O2` (centres unmarked) [Example 85], the “LC50 (% active ingredient in spray)” value in the test on Tetranychus urticae is listed as 0.00031 % active ingredient in spray.
In the case of `O=C(NC(=O)c1c(F)cccc1F)Nc1ccc2c(c1)COC(c1ccccc1Br)O2` (centres unmarked) [Example 87], the mortality at 1000 µg/mL in test [1] lay in the range of 40 to 69%. Moreover, the “LC50 (% active ingredient in spray)” value in the test on Tetranychus urticae was 0.0029 % active ingredient in spray.
In the case of `O=C(NC(=O)c1c(F)cccc1F)Nc1ccc2c(c1)COC(c1ccc(C(F)(F)F)cc1)O2` (centres unmarked) [Example 88], the mortality at 1000 µg/mL in test [1] was in the range of 40 to 69%.
Take `O=C(NC(=O)c1c(F)cccc1F)Nc1ccc2c(c1)COC(c1ccc(OC(F)(F)F)cc1)O2` (centres unmarked) [Example 91]: the mortality at 1000 µg/mL in test [1] was in the range of 40 to 69%.
Take `O=C(NC(=O)c1c(F)cccc1F)Nc1ccc2c(c1)COC(c1cccc(Cl)c1Cl)O2` (centres unmarked) [Example 92]: the “LC50 (% active ingredient in spray)” value with Tetranychus urticae was 0.085 % active ingredient in spray.
Still for that read-out and setting: for `O=C(NC(=O)c1c(F)cccc1F)Nc1ccc2c(c1)COC(c1ccccc1C(F)(F)F)O2` (centres unmarked) [Example 93] the value was 0.00022 % active ingredient in spray.
In the case of `O=C(NC(=O)c1c(F)cccc1F)Nc1ccc2c(c1)CSC(c1ccccc1F)O2` (centres unmarked) [Example 96], in test [1], the mortality at 1000 µg/mL was in the range of 40 to 69%.
On the same count and under the same terms, for `O=C(NC(=O)c1c(F)cccc1F)Nc1ccc2c(c1)CSC(c1ccc(Cl)cc1Cl)O2` (centres unmarked) [Example 98] the value was 40 to 69%.
With `O=C(NC(=O)c1c(F)cccc1F)Nc1ccc2c(c1)CSC(c1c(Cl)cccc1Cl)O2` (centres unmarked) [Example 99], the mortality at 1000 µg/mL in test [1] lay in the range of 40 to 69%.
Still for that read-out and setting: then `O=C(NC(=O)c1c(F)cccc1F)Nc1ccc2c(c1)CSC(c1ccc(F)cc1F)O2` (centres unmarked) [Example 100], with 40 to 69%; and `Cc1ccc(C2Oc3ccc(NC(=O)NC(=O)c4c(F)cccc4F)cc3CS2)cc1` (centres unmarked) [Example 102], with 40 to 69%; and `O=C(NC(=O)c1c(F)cccc1F)Nc1ccc2c(c1)CSC(c1ccccc1C(F)(F)F)O2` (centres unmarked) [Example 103], with 40 to 69%.
On the same count and under the same terms, then `O=C(NC(=O)c1c(F)cccc1F)Nc1ccc2c(c1)CSC(c1ccccc1)O2` (centres unmarked) [Example 104], with 40 to 69%.
For `O=C(NC(=O)c1c(F)cccc1F)Nc1ccc2c(c1)COC(c1ccc(F)cc1F)S2` (centres unmarked) [Example 108], the mortality at 1000 µg/mL in the test with Spodoptera littoralis was in the range of 70 to 100%.
On to `O=C(NC(=O)c1c(F)cccc1F)Nc1ccc2c(c1)COC(c1ccccc1C(F)(F)F)S2` (centres unmarked) [Example 112], for which the mortality at 1000 µg/mL in test [1] lay in the range of 40 to 69%.
With `O=C(NC(=O)c1c(F)cccc1F)Nc1ccc2c(c1)COC(c1c(Cl)cccc1Cl)S2` (centres unmarked) [Example 113], the mortality at 1000 µg/mL lay in the range of 70 to 100% with Spodoptera littoralis and 40 to 69% in test [1].
For `O=C(NC(=O)c1c(F)cccc1F)Nc1ccc2c(c1)COC(c1ccccc1Br)S2` (centres unmarked) [Example 115], in test [1], the mortality at 1000 µg/mL fell in the range of 70 to 100%.
In the case of `Cc1ccccc1C1OCc2cc(NC(=O)NC(=O)c3c(F)cccc3F)ccc2S1` (centres unmarked) [Example 116], the mortality at 1000 µg/mL in test [1] is 40 to 69%.
The same measure, in the same setting: for `O=C(NC(=O)c1c(F)cccc1F)Nc1ccc2c(c1)OC(c1ccccc1)O2` (centres unmarked) [Example 125] the value was 40 to 69%; for `O=C(NC(=O)c1c(F)cccc1F)Nc1ccc2c(c1)OC(c1ccccc1Cl)O2` (centres unmarked) [Example 126], 40 to 69%; for `O=C(NC(=O)c1c(F)cccc1F)Nc1ccc2c(c1)OC(c1cccc(Cl)c1)O2` (centres unmarked) [Example 127], 40 to 69%.
Still for that read-out and setting: then `O=C(NC(=O)c1c(F)cccc1F)Nc1ccc2c(c1)OC(c1ccc(Cl)cc1)O2` (centres unmarked) [Example 128], with 40 to 69%.
Take `O=C(NC(=O)c1c(F)cccc1F)Nc1ccc2c(c1)OC(c1ccc(C(F)(F)F)cc1)O2` (centres unmarked) [Example 134]: the “LC50 (% active ingredient in spray)” value in the test with Tetranychus urticae is reported as 0.09 % active ingredient in spray.
`O=C(NC(=O)c1c(F)cccc1F)Nc1ccc2c(c1)OC(c1ccc(F)cc1F)O2` (centres unmarked) [Example 135]: in test [1], the mortality at 1000 µg/mL was in the range of 40 to 69%.
Same read-out and setting: then `CCOC(=O)CC1(c2ccccc2)Oc2ccc(NC(=O)NC(=O)c3c(F)cccc3F)cc2O1` (centres unmarked) [Example 140], with 40 to 69%.
Take `O=C(NC(=O)c1c(F)cccc1F)Nc1ccc2c(c1)SC(c1ccc(Cl)cc1Cl)O2` (centres unmarked) [Example 142, N-[[[2-(2,4-dichlorophenyl)-1,3-benzoxathiol-5-yl]amino]carbonyl]-2,6-difluorobenzamide]: the “LC50 (% active ingredient in spray)” value with Tetranychus urticae is reported as 0.0015 % active ingredient in spray.
As for `O=C(NC(=O)c1c(F)cccc1F)Nc1ccc2c(c1)SC(c1ccccc1F)O2` (centres unmarked) [Example 143], in test [1], the mortality at 1000 µg/mL is 40 to 69%.
Regarding `O=C(NC(=O)c1c(F)cccc1F)Nc1ccc2c(c1)SC(c1ccc(Cl)c(Cl)c1)O2` (centres unmarked) [Example 145], in the test on Tetranychus urticae, the “LC50 (% active ingredient in spray)” value is on record as 0.053 % active ingredient in spray.
Still for that read-out and setting: for `O=C(NC(=O)c1c(F)cccc1F)Nc1ccc2c(c1)SC(c1ccc(F)cc1F)O2` (centres unmarked) [Example 147] the value was 0.05 % active ingredient in spray.
As to `CC1(c2ccc(Cl)c(Cl)c2)Oc2ccc(NC(=O)NC(=O)c3c(F)cccc3F)cc2S1` (centres unmarked) [Example 152], the mortality at 1000 µg/mL in test [1] fell in the range of 40 to 69%.
